Among the data in patent US20260193293A1, “PEPTIDES CAPABLE OF INHIBITING PROTEIN-PROTEIN INTERACTIONS AT GABAB1A SUBUNIT AND USES THEREOF” (UNIVERSITY OF COPENHAGEN, priority 2022, published 2026) are Ki values, retold here.

Where two headings read alike, the source gives them in different places. Non-standard residues stand in square brackets, D forms with d. Residues, ends and D or L forms follow the SMILES beside them. 2Nal = N[C@@H](Cc1ccc2ccccc2c1)C(=O)O; 3Pal = N[C@@H](Cc1cccnc1)C(=O)O

The target in the test is Sushi domains (SD1/2) protein. Kind of test: Fluorescence polarization (FP) competition assay with AJAP-1probe, calculated Ki. In kind it is binding. Put shortly: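 Ki values were derived from IC50s (sigmoidal fits, ≥ triplicate), with probe Kd obtained by saturation titration of SD1/2. Peptides displaced a 25 nM TAMRA-labelled probe; polarization read at 530/580 nm in 1% BSA-containing PBS, pH 7.4, room temperature.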

The mark [1] stands for this setting: Table 5, elongation and truncation scan of AJAP-1 binding epitope, read-out: Ki (nM) mean ± SEM.
Where [2] appears, read: Table 3, SPOT hit validation and previously reported peptides, read-out: Ki (nM) mean ± SEM.
Where [3] appears, read: Table 11, deep mutational scanning validation variants of AJAP-1WT, read-out: Ki (nM) mean ± SEM.
Setting [4] is: Table 16, ncAAs incorporated peptides, read-out: Ki (nM) mean ± SEM.

Take `CC[C@H](C)[C@H](NC(=O)[C@H](Cc1ccccc1)NC(=O)[C@H](CCC(=O)O)NC(=O)[C@@H](NC(=O)[C@H](CCC(=O)O)NC(=O)[C@@H](NC(=O)[C@@H](NC(=O)[C@@H]1CCCN1C(=O)[C@H](CCCNC(=N)N)NC(C)=O)[C@@H](C)O)[C@@H](C)O)[C@@H](C)O)C(=O)N[C@@H](C)C(=O)N[C@@H](Cc1c[nH]c2ccccc12)C(=O)NCC(=O)N1CCC[C@H]1C(=O)N[C@H](C(=O)NCC(=O)N[C@@H](CC(=O)O)C(=O)N[C@@H](CCC(=O)O)C(=O)N[C@@H](CC(=O)O)C(N)=O)[C@@H](C)O`: the Ki under setting [1] was 58 ± 0.4 nM.

For the compound `CC[C@H](C)[C@H](NC(=O)[C@H](Cc1ccccc1)NC(=O)[C@H](CCC(=O)O)NC(=O)[C@@H](NC(=O)[C@H](CCC(=O)O)NC(C)=O)[C@@H](C)O)C(=O)N[C@@H](C)C(=O)N[C@@H](Cc1c[nH]c2ccccc12)C(=O)NCC(=O)N1CCC[C@H]1C(=O)N[C@H](C(=O)NCC(=O)N[C@@H](CC(=O)O)C(=O)N[C@@H](CCC(=O)O)C(=O)N[C@@H](CC(=O)O)C(=O)N[C@@H](C)C(N)=O)[C@@H](C)O`, the Ki under setting [2] was 39 ± 1 nM.

As to `CC[C@H](C)[C@H](NC(=O)[C@H](Cc1ccccc1)NC(=O)[C@H](CCC(=O)O)NC(=O)[C@@H](NC(=O)[C@H](CCC(=O)O)NC(=O)[C@@H](NC(C)=O)[C@@H](C)O)[C@@H](C)O)C(=O)N[C@@H](C)C(=O)N[C@@H](Cc1c[nH]c2ccccc12)C(=O)NCC(=O)N1CCC[C@H]1C(=O)N[C@H](C(=O)NCC(=O)N[C@@H](CC(=O)O)C(=O)N[C@@H](CCC(=O)O)C(=O)N[C@@H](CC(=O)O)C(N)=O)[C@@H](C)O` [Peptide 15, Ac-TETEFIAWGPTGDED-NH2] (Ac-TETEFIAWGPTGDED-NH2), the Ki reads like this: under setting [1], 26 ± 0.3 nM; (purified peptides, read-out: Ki) 23 nM.

For `CC[C@H](C)[C@H](NC(=O)[C@H](Cc1ccccc1)NC(=O)[C@H](CCC(=O)O)NC(=O)[C@@H](NC(=O)[C@H](CCC(=O)O)NC(C)=O)C(C)C)C(=O)N[C@@H](C)C(=O)N[C@@H](Cc1c[nH]c2ccccc12)C(=O)NCC(=O)N1CCC[C@H]1C(=O)N[C@H](C(=O)NCC(=O)N[C@@H](CC(=O)O)C(=O)N[C@@H](CCC(=O)O)C(=O)N[C@@H](CC(=O)O)C(N)=O)[C@@H](C)O` [EVEFIAWGPTGDED] (Ac-EVEFIAWGPTGDED-NH2), under setting [3], the Ki is 28 ± 1 nM.

For the compound `CC(=O)N[C@@H](CCC(=O)O)C(=O)N[C@@H](CC(=O)O)C(=O)N[C@@H](CC(=O)O)C(=O)N[C@@H](CO)C(=O)N[C@@H](Cc1cccnc1)C(=O)N[C@H](C(=O)N[C@@H](Cc1c[nH]c2ccccc12)C(=O)N[C@@H](Cc1c[nH]c2ccccc12)C(=O)NCC(=O)NCC(=O)N[C@@H](C)C(=O)N[C@@H](CC(=O)O)C(=O)N[C@H](C(=O)N[C@@H](CC(=O)O)C(N)=O)[C@@H](C)O)C(C)C` (Ac-EDDS[3Pal]VWWGGADTD-NH2), the Ki under setting [4] was 373 ± 7 nM.

Regarding `CC[C@H](C)[C@H](NC(=O)[C@H](C)NC(=O)[C@H](Cc1c[nH]c2ccccc12)NC(=O)[C@@H]1CCCN1C(C)=O)C(=O)N[C@H](C(=O)N[C@@H](Cc1c[nH]c2ccccc12)C(=O)NCC(=O)N1CCC[C@H]1C(=O)N[C@H](C(=O)N[C@H](C(=O)N[C@@H](CO)C(=O)N[C@@H](CCCNC(=N)N)C(=O)N[C@@H](C)C(=O)N[C@@H](CC(=O)O)C(N)=O)C(C)C)[C@@H](C)O)C(C)C` (Ac-PWAIVWGPTVSRAD-NH2), the Ki (Table 9, Ala-, D-amino acids and N-methylation scans of PIANPWT, read-out: Ki (nM) mean ± SEM) was 600 ± 22 nM.

For the compound `CC[C@H](C)[C@H](NC(=O)[C@H](Cc1ccccc1)NC(=O)[C@H](CCC(=O)O)NC(=O)[C@@H](NC(=O)[C@H](CCC(=O)O)NC(C)=O)[C@@H](C)O)C(=O)N[C@@H](C)C(=O)N[C@@H](Cc1c[nH]c2ccccc12)C(=O)NCC(=O)N1CCC[C@H]1C(=O)N[C@@H](Cc1ccccc1)C(=O)NCC(=O)N[C@@H](CC(=O)O)C(=O)N[C@@H](CCC(=O)O)C(=O)N[C@@H](CC(=O)O)C(N)=O` [ETEFIAWGPFGDED] (Ac-ETEFIAWGPFGDED-NH2), the Ki under setting [3] was 40 ± 1 nM.

Consider `CC[C@H](C)[C@H](NC(C)=O)C(=O)N[C@H](C(=O)N[C@@H](Cc1c[nH]c2ccccc12)C(=O)NCC(=O)N1CCC[C@H]1C(=O)N[C@H](C(=O)N[C@H](C(=O)N[C@@H](CO)C(=O)N[C@@H](CCCNC(=N)N)C(=O)N[C@@H](CCC(=O)O)C(=O)N[C@@H](CC(=O)O)C(=O)NCC(N)=O)C(C)C)[C@@H](C)O)C(C)C` (Ac-IVWGPTVSREDG-NH2), for which, for the setting “Table 6, elongation and truncation scan of PIANP binding epitope, read-out: Ki (nM) mean ± SEM”, the Ki is 15700 ± 210 nM.

For the compound `CC[C@H](C)[C@H](NC(=O)[C@H](Cc1ccccc1)NC(=O)[C@H](CCC(=O)O)NC(=O)[C@@H](NC(=O)[C@H](CCCNC(=N)N)NC(C)=O)[C@@H](C)O)C(=O)N[C@@H](C)C(=O)N[C@@H](Cc1c[nH]c2ccccc12)C(=O)NCC(=O)N1CCC[C@H]1C(=O)N[C@H](C(=O)NCC(=O)N[C@@H](CC(=O)O)C(=O)N[C@@H](CCC(=O)O)C(=O)N[C@@H](CC(=O)O)C(N)=O)[C@@H](C)O` [RTEFIAWGPTGDED] (Ac-RTEFIAWGPTGDED-NH2), the Ki under setting [3] is 87 ± 3 nM.

For `CC(=O)N[C@@H](CCC(=O)O)C(=O)N[C@@H](CC(=O)O)C(=O)N[C@@H](CC(=O)O)C(=O)N[C@@H](CO)C(=O)N[C@@H](CC(=O)O)C(=O)N[C@H](C(=O)N[C@@H](Cc1c[nH]c2ccccc12)C(=O)N[C@@H](Cc1ccc2ccccc2c1)C(=O)NCC(=O)NCC(=O)N[C@@H](C)C(=O)N[C@@H](CC(=O)O)C(=O)N[C@H](C(=O)N[C@@H](CC(=O)O)C(N)=O)[C@@H](C)O)C(C)C` [EDDSDVW(2Nala)GGADTD] (Ac-EDDSDVW[2Nal]GGADTD-NH2), under setting [4], the Ki was 814 ± 10 nM.

In the case of `CC[C@H](C)[C@H](NC(=O)[C@H](Cc1ccccc1)NC(=O)[C@H](CCC(=O)O)NC(=O)[C@H](C)NC(=O)[C@H](CCC(=O)O)NC(C)=O)C(=O)N[C@@H](C)C(=O)N[C@@H](Cc1c[nH]c2ccccc12)C(=O)NCC(=O)N1CCC[C@H]1C(=O)N[C@H](C(=O)NCC(=O)N[C@@H](CC(=O)O)C(=O)N[C@@H](CCC(=O)O)C(=O)N[C@@H](CC(=O)O)C(N)=O)[C@@H](C)O` [EAEFIAWGPTGDED] (Ac-EAEFIAWGPTGDED-NH2), the Ki (Table 8, Ala-, D-amino acids and N-methylation scans of AJAP-1WT, read-out: Ki (nM) mean ± SEM) is 34 ± 3 nM.

As for `CC[C@H](C)[C@H](NC(=O)[C@H](Cc1ccccc1)NC(=O)[C@H](CCC(=O)O)NC(=O)[C@@H](NC(=O)[C@H](CCC(=O)O)NC(C)=O)[C@@H](C)O)C(=O)N[C@@H](C)C(=O)N[C@@H](Cc1c[nH]c2ccccc12)C(=O)N[C@@H](Cc1ccc(O)cc1)C(=O)N1CCC[C@H]1C(=O)N[C@H](C(=O)NCC(=O)N[C@@H](CC(=O)O)C(=O)N[C@@H](CCC(=O)O)C(=O)N[C@@H](CC(=O)O)C(N)=O)[C@@H](C)O` [ETEFIAWYPTGDED] (Ac-ETEFIAWYPTGDED-NH2), the Ki under setting [3] was 199 ± 10 nM and the Ki (Table 13, peptides for affinity maturation, read-out: Ki (nM) mean ± SEM) is 199 ± 10 nM.

Take `CC[C@H](C)[C@H](NC(=O)[C@H](C)NC(=O)[C@H](Cc1c[nH]c2ccccc12)NC(=O)[C@@H]1CCCN1C(C)=O)C(=O)N[C@H](C(=O)N[C@@H](Cc1c[nH]c2ccccc12)C(=O)NCC(=O)N1CCC[C@H]1C(=O)N[C@H](C(=O)N[C@@H](CC(=O)O)C(=O)N[C@@H](CO)C(=O)N[C@@H](CCCNC(=N)N)C(=O)N[C@@H](CCC(=O)O)C(=O)N[C@@H](CC(=O)O)C(N)=O)[C@@H](C)O)C(C)C` [PWAIVWGPTDSRED] (Ac-PWAIVWGPTDSRED-NH2): the Ki (Table 12, deep mutational scanning validation variants of PIANPWT, read-out: Ki (nM) mean ± SEM) was 417 ± 6 nM.

For the compound `CC[C@H](C)[C@H](NC(=O)[C@H](Cc1c[nH]c2ccccc12)NC(=O)[C@H](CC(=O)O)NC(=O)[C@H](CC(=O)O)NC(=O)[C@H](CC(=O)O)NC(=O)[C@H](CCC(=O)O)NC(=O)[C@H](CCCNC(=N)N)NC(=O)[C@H](CCCNC(=N)N)NC(=O)[C@H](CCCNC(=N)N)NC(=O)[C@H](CCCNC(=N)N)NC(=O)[C@H](CCCNC(=N)N)NC(C)=O)C(=O)N[C@@H](CC(=O)O)C(=O)N[C@@H](Cc1c[nH]c2ccccc12)C(=O)NCC(=O)N1CCC[C@H]1C(=O)N[C@H](C(=O)N[C@@H](CO)C(=O)N[C@@H](CC(=O)O)C(=O)N[C@@H](CC(=O)O)C(=O)N[C@@H](CC(=O)O)C(N)=O)[C@@H](C)O` (Ac-RRRRREDDDWIDWGPTSDDD-NH2), the Ki (Table 14, CPPs tagged peptides, read-out: Ki (nM) mean ± SEM) was 32 ± 1 nM.

For the compound `CC(=O)N[C@@H](CC(=O)O)C(=O)N[C@@H](CC(=O)O)C(=O)N[C@@H](CO)C(=O)N[C@@H](CC(=O)O)C(=O)N[C@H](C(=O)N[C@@H](Cc1c[nH]c2ccccc12)C(=O)N[C@@H](Cc1c[nH]c2ccccc12)C(=O)NCC(=O)NCC(=O)N[C@@H](C)C(=O)N[C@@H](CC(=O)O)C(=O)N[C@H](C(=O)N[C@@H](CC(=O)O)C(=O)N[C@@H](Cc1ccc(O)cc1)C(=O)N[C@@H](C)C(=O)N[C@@H](CC(=O)O)C(=O)NCC(N)=O)[C@@H](C)O)C(C)C` (Ac-DDSDVWWGGADTDYADG-NH2), under setting [2], the Ki was 687 ± 17 nM.

`CC(=O)N[C@@H](C)C(=O)N[C@@H](CC(=O)O)C(=O)N[C@@H](C)C(=O)N[C@@H](CCC(=O)O)C(=O)N[C@@H](CCC(=O)O)C(=O)N[C@@H](CC(=O)O)C(=O)N[C@@H](CC(=O)O)C(=O)N[C@@H](CO)C(=O)N[C@@H](CC(=O)O)C(=O)N[C@H](C(=O)N[C@@H](Cc1c[nH]c2ccccc12)C(=O)N[C@@H](Cc1c[nH]c2ccccc12)C(=O)NCC(=O)NCC(=O)N[C@@H](C)C(=O)N[C@@H](CC(=O)O)C(=O)N[C@H](C(=O)N[C@@H](CC(=O)O)C(=O)N[C@@H](Cc1ccc(O)cc1)C(=O)N[C@@H](C)C(=O)N[C@@H](CC(=O)O)C(N)=O)[C@@H](C)O)C(C)C` (Ac-ADAEEDDSDVWWGGADTDYAD-NH2): where the note is “Table 4, truncation and elongation scans of APP epitope, read-out: Ki (nM) mean ± SEM”, the Ki was 500 ± 16 nM.
